The text below walks through data of patent US10421751B2, “Dihydro-2H-benzo[b][1,4]oxazine sulfonamide and related compounds for use as agonists of RORγ and the treatment of disease” (Lycera Corporation, priority 2015, dated 2019).

The target of assay [1] is T1, Gal4-RORγ-LBD (Homo sapiens, UniProt P51449).
T1 construct: expressed in transfected cells; pcDNA3.1neo plasmid, co-transfected with pGL4.31 Gal4-luciferase reporter
T1 sequence (P51449 269-508 limits assumed): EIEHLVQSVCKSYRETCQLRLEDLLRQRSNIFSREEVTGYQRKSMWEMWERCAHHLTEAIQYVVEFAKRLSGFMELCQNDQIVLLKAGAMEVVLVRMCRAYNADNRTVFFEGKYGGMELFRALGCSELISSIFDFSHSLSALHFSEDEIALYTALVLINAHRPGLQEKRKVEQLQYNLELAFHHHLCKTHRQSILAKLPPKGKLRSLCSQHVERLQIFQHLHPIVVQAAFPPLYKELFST
The assay can be described thus: Gal4-RORγ Luciferase Reporter Assay in HEK-293T Cells. The assay is classed as cell-based. The settings on record: for EC50: HEK-293 cells, in presence of 2 μM ursolic acid, overnight incubation, read-out: Ga14-RORγ Assay EC50; for Ga14-RORγ Assay Max Response: upper plateau of 4-parameter fit, luciferase signal in the absence of ursolic acid or test compound defined at 100. Here is the method: In the following protocol, HEK-293 cells were transfected with a construct comprising the Gal4 DNA binding domain fused to the ligand binding domain of RORγ (Gal4-RORγ-LBD) in a pcDNA3.1neo plasmid, and also with a reporter construct comprising pGL4.31 Gal4-luciferase (Promega). Control cells were prepared similarly using empty pcDNA3.1neo and pGL4.31 vectors.
Trans-IT reagent (Mirus, 60 μL) at room temperature was added drop wise to OptiMEM (Invitrogen, 1.5 ml). This reagent mixture was mixed by inversion then incubated for 5 to 30 minutes at room temperature. It then was added to a solution of both expression vectors (5 μg each), mixed, and incubated at room temperature for about 20 minutes. HEK-293 cells were harvested from incubation flasks by removing the media, treating with TrypLE Express (Invitrogen), and incubating until the cells detached from the bottom of the flask (approximately 2-5 minutes). 10 Million cells were collected by centrifugation and re-suspended in 10 mL of Dulbecco's Modified Eagle Medium, High Glucose (DMEM, Invitrogen) containing 10% Fetal Bovine Serum and 100 IU each of penicillin and streptomycin. The re-suspended cells and the transfection mixture were added to a T75 flask, mixed and incubated overnight at 37° C. and 5% CO2.
The cells were harvested as described above, counted, and centrifuged to obtain the desired number of cells, then re-suspended in complete growth media at 0.75×10^6 cells/mL. The RORγ antagonist, ursolic acid, was added to the cells at a final concentration of 2 μM. Cells were plated at 20 μL of cell suspension/well (10,000-15,000 cells/well) in white tissue culture treated 384 well plates. Test compounds were dissolved at 10 mM in DMSO then diluted into complete growth medium to 5× the final intended test concentration. These drug stock solutions, 5 μL/well were added to the tissue culture plate. The final DMSO concentration was 0.2%. The plates were briefly centrifuged then incubated overnight at 37° C. and 5% CO2. To conduct the assay, the tissue culture plates were allowed to equilibrate to room temperature and One-Glo luciferase reagent (Promega, 25 μL/well) was added. The plates were briefly centrifuged then incubated at room temperature for 10 minutes. The luciferase intensity was read on an Envision plate reader (Perkin Elmer). RORγ activity was determined relative to controls and plotted as a function of test compound concentration using PRISM (GraphPad) to determine a 50% effective concentration (EC50). The luciferase signal in the absence of ursolic acid or test compound is defined at 100. The Max Response is the upper plateau in the signal as determined by line-fit using a 4-parameter logistic model in PRISM (GraphPad).
Background: A reporter such as luciferase makes a cellular process visible.

Assay [2] addresses T2, RORγ-LBD (Homo sapiens, UniProt P51449).
T2 construct: made in house; host or cells: SF9 cells, baculovirus expression system; used as diluted lysate
T2 sequence (P51449 269-508 limits assumed): T1 sequence (P51449 269-508 limits assumed)
In words: RORγ-Ligand Binding Domain (LBD) TR-FRET Assay. Format: biochemical. The settings on record: for EC50: in presence of 2 μM RORγ antagonist ursolic acid, SRC1 coactivator peptide; for TR-FRET Assay Max Response: upper plateau of 4-parameter fit, signal in the absence of ursolic acid or test compound set as 100. On the procedure: HIS-tagged RORγ-LBD protein was expressed in SF9 cells using a baculovirus expression system. The lysate was diluted in assay buffer (50 mM Tris pH 7.0, 50 mM KCl, 1 mM EDTA, 0.1 mM DTT, 0.01% BSA) to obtain RORγ-LBD final concentration of ˜3 nM in a 384-well assay plate (need to titrate for each batch of protein).
A stock of biotinylated-LXXLL peptide from coactivator SRC1 (Biotin-[…]) was prepared in assay buffer and added to each well (200 nM final concentration). A solution of Europium tagged anti-HIS antibody (0.6 nM final concentration) and APC-conjugated streptavidin (30 nM final concentration) were also added to each well. RORγ antagonist ursolic acid was also included at a final concentration of 2 μM. Compounds were diluted in DMSO and further diluted in assay buffer with a final DMSO concentration at 1%.
The final assay mixture was incubated overnight at 4° C. or 2 hours at room temperature, and the fluorescence signal was measured on an Envision plate reader: (Excitation filter=340 nm; APC emission=665 nm; Europium emission=615 nm; dichroic mirror=D400/D630; delay time=100 μs, integration time=200 μs). 50% Effective concentration (EC50) values for test compounds were calculated from the quotient of the fluorescence signal at 665 nm divided by the fluorescence signal at 615 nm. The quotient of the fluorescence signals in the absence of ursolic acid or test compound is set as 100. Max Response is defined as the upper plateau in the signal as determined by line-fit using a 4-parameter logistic model in PRISM (GraphPad).
(In general: In TR-FRET formats the signal depends on donor and acceptor labels being close together.)

In the case of `C/C(=C\c1ccc2c(c1)N(S(=O)(=O)c1cccc(C(F)(F)F)c1)C[C@H](CCCn1cccn1)O2)c1c(F)cccc1Cl`, in assay [1], the 50% effective concentration (EC50) is 0.1 to 5 µM and the “Ga14-RORγ Assay Max Response” value is “** (a value in the range of greater than 90 to 150)”. In assay [2], the EC50 was under 0.1 µM and the “TR-FRET Assay Max Response” value was “*** (a value in the range of greater than 150 to 200)”.
The matching figures for `CCn1cc(S(=O)(=O)N2C[C@H](CCc3n[nH]c(=O)o3)Oc3ccc(/C=C(\C)c4c(F)cccc4Cl)cc32)c(OCCO)n1`: 0.1 to 5 µM, “** (a value in the range of greater than 90 to 150)”, under 0.1 µM and “**** (a value greater than 200)”.
With `CCOc1ncc(C(F)(F)F)cc1S(=O)(=O)N1C[C@H](CCc2n[nH]c(=O)o2)Oc2ccc(/C=C/c3c(Cl)cccc3C(F)(F)F)cc21`, in assay [1], the EC50 was 0.1 to 5 µM and the “Ga14-RORγ Assay Max Response” value was “** (a value in the range of greater than 90 to 150)”. Moreover, in assay [2], the EC50 was in the range of 0.1 to 5 µM and the “TR-FRET Assay Max Response” value is “**** (a value greater than 200)”.
With `C/C(=C\c1ccc2c(c1)N(S(=O)(=O)c1cccc(C(F)(F)F)c1)C[C@H](CCc1nn[nH]n1)O2)c1c(F)cccc1Cl`, in assay [1], the EC50 lay in the range of 0.1 to 5 µM and the “Ga14-RORγ Assay Max Response” value was “*** (a value in the range of greater than 150 to 200)”. In addition, in assay [2], the EC50 was under 0.1 µM and the “TR-FRET Assay Max Response” value is on record as “*** (a value in the range of greater than 150 to 200)”.
Consider `C/C(=C\c1ccc2c(c1)N(S(=O)(=O)c1cccc(C(F)(F)F)c1)C[C@H](Oc1n[nH]c(=O)[nH]1)C2)c1c(F)cccc1Cl`, for which, in assay [1], the EC50 lay in the range of 5 to 10 µM and the “Ga14-RORγ Assay Max Response” value is listed as “** (a value in the range of greater than 90 to 150)”. In assay [2], the EC50 is under 0.1 µM and the “TR-FRET Assay Max Response” value is “*** (a value in the range of greater than 150 to 200)”.
The corresponding values for `C/C(=C\c1ccc2c(c1)N(S(=O)(=O)c1cccc(C(F)(F)F)c1)C[C@H](CCn1ccnc1)O2)c1c(F)cccc1Cl` are 0.1 to 5 µM, “** (a value in the range of greater than 90 to 150)”, under 0.1 µM and “*** (a value in the range of greater than 150 to 200)”.
`C/C(=C\c1ccc2c(c1)N(S(=O)(=O)c1cccc(C(F)(F)F)c1)[C@H](C)[C@H](Cn1ccnn1)C2)c1c(F)cccc1Cl`: in assay [1], the EC50 was over 10 µM and the “Ga14-RORγ Assay Max Response” value is “* (a value in the range of 40 to 90)”. Further, in assay [2], the EC50 is under 0.1 µM and the “TR-FRET Assay Max Response” value is “*** (a value in the range of greater than 150 to 200)”.
The corresponding values for `C/C(=C\c1ccc2c(c1)N(S(=O)(=O)c1cccc(C(F)(F)F)c1)C[C@H](Cc1n[nH]c(=O)o1)O2)c1c(F)cccc1Cl` are 0.1 to 5 µM, “* (a value in the range of 40 to 90)”, under 0.1 µM and “*** (a value in the range of greater than 150 to 200)”.
Consider `C/C(=C\c1ccc2c(c1)N(S(=O)(=O)c1cccc(OC(F)F)c1)C[C@H](CCOc1noc(=O)[nH]1)O2)c1c(F)cccc1Cl`, for which, in assay [1], the EC50 lay within 0.1 to 5 µM and the “Ga14-RORγ Assay Max Response” value is listed as “** (a value in the range of greater than 90 to 150)”. Besides, in assay [2], the EC50 is under 0.1 µM and the “TR-FRET Assay Max Response” value was “*** (a value in the range of greater than 150 to 200)”.
The corresponding values for `O=c1[nH]nc(CC[C@H]2CN(S(=O)(=O)c3cccc(C(F)(F)F)c3)c3cc(/C=C/c4c(Cl)cccc4C(F)(F)F)ccc3O2)o1` are 0.1 to 5 µM, “** (a value in the range of greater than 90 to 150)”, under 0.1 µM and “*** (a value in the range of greater than 150 to 200)”.
Consider `COc1cc(S(=O)(=O)N2C[C@H](CCc3n[nH]c(=O)o3)Oc3ccc(/C=C(\C)c4c(F)cccc4Cl)cc32)ccc1F`, for which, in assay [1], the EC50 is 0.1 to 5 µM and the “Ga14-RORγ Assay Max Response” value is given as “** (a value in the range of greater than 90 to 150)”. In addition, in assay [2], the EC50 is under 0.1 µM and the “TR-FRET Assay Max Response” value is recorded as “** (a value in the range of greater than 90 to 150)”.
For `C/C(=C\c1ccc2c(c1)N(S(=O)(=O)c1cccc(C(F)(F)F)c1)C[C@H](CCCn1cc(C(=O)O)nn1)O2)c1c(F)cccc1Cl`, in assay [1], the EC50 was in the range of 0.1 to 5 µM and the “Ga14-RORγ Assay Max Response” value was “** (a value in the range of greater than 90 to 150)”. For the same compound, in assay [2], the EC50 is under 0.1 µM and the “TR-FRET Assay Max Response” value is listed as “*** (a value in the range of greater than 150 to 200)”.
The corresponding values for `C/C(=C\c1ccc2c(c1)N(S(=O)(=O)c1cccc(C(F)(F)F)c1)C[C@H](CCn1ccnc1C)O2)c1c(F)cccc1Cl` are 0.1 to 5 µM, “** (a value in the range of greater than 90 to 150)”, under 0.1 µM and “*** (a value in the range of greater than 150 to 200)”.
For the compound `CCOc1ncc(Cl)cc1S(=O)(=O)N1C[C@H](CCc2n[nH]c(=O)o2)Oc2ccc(/C=C(\C)c3c(F)cccc3Cl)cc21`, in assay [1], the EC50 was in the range of 0.1 to 5 µM and the “Ga14-RORγ Assay Max Response” value is given as “** (a value in the range of greater than 90 to 150)”. In assay [2], the EC50 is under 0.1 µM and the “TR-FRET Assay Max Response” value is recorded as “*** (a value in the range of greater than 150 to 200)”.
As to `CCOc1nn(CC)cc1S(=O)(=O)N1C[C@H](CCc2n[nH]c(=O)o2)Oc2ccc(/C=C(\C)c3c(F)cccc3Cl)cc21`, in assay [1], the EC50 was 0.1 to 5 µM and the “Ga14-RORγ Assay Max Response” value was “*** (a value in the range of greater than 150 to 200)”. Further, in assay [2], the EC50 is under 0.1 µM and the “TR-FRET Assay Max Response” value is given as “*** (a value in the range of greater than 150 to 200)”.
With `C/C(=C\c1ccc2c(c1)N(S(=O)(=O)c1cccc(C(F)(F)F)c1)C[C@H](CCCn1ccnc1)O2)c1c(F)cccc1Cl`, in assay [1], the EC50 is 0.1 to 5 µM and the “Ga14-RORγ Assay Max Response” value is given as “** (a value in the range of greater than 90 to 150)”. Besides, in assay [2], the EC50 is under 0.1 µM and the “TR-FRET Assay Max Response” value is reported as “*** (a value in the range of greater than 150 to 200)”.
The matching figures for `O=c1[nH]nc(CC[C@H]2CN(S(=O)(=O)c3cccc(OC(F)F)c3)c3cc(/C=C/c4c(Cl)cccc4C(F)(F)F)ccc3O2)o1`: 0.1 to 5 µM, “** (a value in the range of greater than 90 to 150)”, under 0.1 µM and “**** (a value greater than 200)”.

As usually defined, the EC50 is the midpoint of the concentration-response curve.
